Reference: patent US20230265151A1, “GIP/GLP1 CO-AGONIST COMPOUNDS” (priority 2020, published 2023)
Like-named read-outs stand apart in the source and are kept apart here.

Columns and labels:
hGLP-1R = hGLP-1R (Homo sapiens, UniProt P43220); test: Functional cAMP formation (HTRF) in HEK-293 clonal cells expressing hGLP-1R, 0.1% bovine casein, without or with 1.0% human serum albumin; format: cell-based; parameters: expressed in transfected cells; details: for Emax: percent of maximal response to GLP-1(7-36)NH2; for EC50: cAMP
Chain of hGLP-1R (P43220 24-463): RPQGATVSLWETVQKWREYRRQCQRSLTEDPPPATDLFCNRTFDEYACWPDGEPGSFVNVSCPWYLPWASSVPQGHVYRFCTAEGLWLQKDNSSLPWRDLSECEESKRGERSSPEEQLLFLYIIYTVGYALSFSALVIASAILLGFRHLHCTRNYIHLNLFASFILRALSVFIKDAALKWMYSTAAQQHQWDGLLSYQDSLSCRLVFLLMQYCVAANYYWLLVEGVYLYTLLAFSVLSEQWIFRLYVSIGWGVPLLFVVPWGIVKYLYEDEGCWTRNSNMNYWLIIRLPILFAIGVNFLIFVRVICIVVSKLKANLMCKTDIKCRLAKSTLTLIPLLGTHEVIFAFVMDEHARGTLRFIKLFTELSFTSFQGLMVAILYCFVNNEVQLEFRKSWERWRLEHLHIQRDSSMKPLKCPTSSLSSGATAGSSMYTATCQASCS
In short: (§1)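 Cells were stimulated with peptide for 30 min at 37° C, then intracellular cAMP was measured by competitive HTRF (665/620 nm ratio) and converted to nM using a cAMP standard curve. Relative EC50 and Emax came from four-parameter logistic fits of percent maximal response against peptide concentration.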

hGIPR = target: T1, hGIPR (Homo sapiens, UniProt P48546); test: Functional cAMP formation (HTRF) in HEK-293 clonal cells expressing hGIPR, 0.1% bovine casein, without or with 1.0% human serum albumin; format: cell-based; details: for Emax: percent of maximal response to GIP(1-42)NH2; for EC50: cAMP, 0.1% bovine casein (no human serum albumin), geometric mean
T1 construct: expressed in transfected cells
T1 sequence (P48546 22-466): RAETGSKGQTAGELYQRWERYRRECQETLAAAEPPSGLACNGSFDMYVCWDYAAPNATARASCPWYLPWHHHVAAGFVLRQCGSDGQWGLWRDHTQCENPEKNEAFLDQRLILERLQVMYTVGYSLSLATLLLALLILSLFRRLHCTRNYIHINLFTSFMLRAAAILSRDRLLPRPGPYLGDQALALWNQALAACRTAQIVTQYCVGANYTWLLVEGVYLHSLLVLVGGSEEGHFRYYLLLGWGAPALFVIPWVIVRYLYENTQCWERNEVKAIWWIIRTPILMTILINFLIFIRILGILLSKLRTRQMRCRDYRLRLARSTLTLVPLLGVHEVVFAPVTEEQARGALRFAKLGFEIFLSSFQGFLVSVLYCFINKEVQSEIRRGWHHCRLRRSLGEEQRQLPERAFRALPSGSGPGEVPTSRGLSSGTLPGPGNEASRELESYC
In short: as §1

hGCGR = target: T2, hGCGR (Homo sapiens, UniProt P47871); test: Functional cAMP formation (HTRF) in HEK-293 clonal cells expressing hGCGR, 0.1% bovine casein, without or with 1.0% human serum albumin; format: cell-based; details: cAMP, 37° C.
T2 construct: expressed in transfected cells
T2 sequence (P47871 26-477): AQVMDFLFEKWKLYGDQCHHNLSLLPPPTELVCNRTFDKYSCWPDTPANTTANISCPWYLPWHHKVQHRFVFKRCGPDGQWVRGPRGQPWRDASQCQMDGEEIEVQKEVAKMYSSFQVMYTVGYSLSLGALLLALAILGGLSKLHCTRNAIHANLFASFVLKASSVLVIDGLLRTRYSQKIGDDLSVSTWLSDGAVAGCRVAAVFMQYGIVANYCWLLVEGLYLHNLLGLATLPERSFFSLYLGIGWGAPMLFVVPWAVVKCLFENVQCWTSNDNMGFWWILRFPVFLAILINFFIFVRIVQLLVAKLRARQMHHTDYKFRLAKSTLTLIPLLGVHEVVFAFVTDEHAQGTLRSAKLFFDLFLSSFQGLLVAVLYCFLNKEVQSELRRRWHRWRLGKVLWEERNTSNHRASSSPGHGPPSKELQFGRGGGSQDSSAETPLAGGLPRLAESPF
In short: as §1

[1] = target: T3, human GIP receptor (human) (UniProt P48546); test: cell-based or functional assay
T3 sequence (looked up): T1 sequence (P48546 22-466)

[2] = HEK293, cAMP, 37° C., 0.1% bovine casein, arithmetic mean, read-out: hGLP-1R Emax, % ± SEM
[3] = 37° C., 0.1% bovine casein (no human serum albumin), geometric mean, read-out: hGLP-1R EC50, nM (SEM, n)
[4] = HEK293, cAMP, 37° C., 0.1% bovine casein and 1.0% human serum albumin, read-out: hGIPR Emax, % ± SEM
[5] = 37° C., read-out: hGIPR EC50, nM (SEM, n)
[6] = 0.1% bovine casein (no human serum albumin), geometric mean, read-out: hGCGR EC50, nM (SEM, n)
[7] = 0.1% bovine casein and 1.0% human serum albumin, geometric mean (SEM, n), read-out: hGCGR EC50, nM (SEM, n)
[8] = 37° C., 0.1% bovine casein and 1.0% human serum albumin, geometric mean (SEM, n), read-out: hGLP-1R EC50, nM (SEM, n)

Row | Molecule | Emax (hGLP-1R; [2]) | EC50 (hGLP-1R; [3]) | Emax (hGIPR; [4]) | EC50 (hGIPR; [5]) | EC50 (hGCGR; [6]) | EC50 (hGCGR; [7]) | EC50 (hGLP-1R; [8]) | other results
1 | CC[C@H](C)[C@H](NC(=O)[C@H](CC(C)C)NC(=O)[C@](C)(Cc1ccc(O)cc1)NC(=O)[C@H](CCCCNC(=O)CCOCCOCCOCCOCCOCCNC(=O)CC[C@H](NC(=O)CCCCCCCCCOc1ccc(C(=O)O)cc1)C(=O)O)NC(=O)[C@@H](NC(=O)[C@H](Cc1ccccc1)NC(=O)[C@H](CCCN)NC(=O)C(C)(C)NC(=O)[C@H](CCC(N)=O)NC(=O)[C@H](C)NC(=O)[C@H](CCC(N)=O)NC(=O)[C@H](CCCN)NC(=O)[C@H](CC(=O)O)NC(=O)[C@H](CC(C)C)NC(=O)[C@](C)(CC(C)C)NC(=O)[C@@H](NC(=O)C(C)(C)NC(=O)[C@H](Cc1ccncc1)NC(=O)[C@H](CC(=O)O)NC(=O)[C@H](CO)NC(=O)[C@@H](NC(=O)[C@](C)(Cc1ccccc1F)NC(=O)[C@@H](NC(=O)CNC(=O)[C@H](CCC(=O)O)NC(=O)C(C)(C)NC(=O)[C@@H](N)Cc1ccc(O)cc1)[C@@H](C)O)[C@@H](C)O)[C@@H](C)CC)[C@@H](C)CC)C(=O)N[C@@H](CCCCNC(=O)CCOCCOCCOCCOCCOCCNC(=O)CC[C@H](NC(=O)CCCCCCCCCOc1ccc(C(=O)O)cc1)C(=O)O)C(=O)NCC(=O)NCC(=O)N1CCC[C@H]1C(=O)N[C@@H](CO)C(=O)N[C@@H](CO)C(=O)NCC(=O)N[C@@H](C)C(=O)N1CCC[C@H]1C(=O)N1CCC[C@H]1C(=O)N1CCC[C@H]1C(=O)N[C@@H](CO)C(N)=O [Example 469] |  |  |  |  |  |  |  | Emax (hGLP-1R; HEK293, read-out: hGLP-1R Emax, % ± SEM, cAMP, 37° C., 0.1% bovine casein and 1.0% human serum albumin): 93.8%; Emax (hGLP-1R; HEK293, read-out: hGLP-1R Emax, % ± SEM, cAMP, 37° C., 0.1% bovine casein, arithmetic mean): 111%; EC50 (hGLP-1R; hGLP-1R EC50, nM (SEM, n), 37° C., 0.1% bovine casein (no human serum albumin), geometric mean): 0.161 nM; EC50 (hGLP-1R; hGLP-1R EC50, nM (SEM, n), 37° C., 0.1% bovine casein and 1.0% human serum albumin, geometric mean (SEM, n)): 2.33 nM; Emax (hGIPR; HEK293, read-out: hGIPR Emax, % ± SEM, cAMP, 37° C., 0.1% bovine casein and 1.0% human serum albumin): 82.1%; EC50 (hGIPR; hGIPR EC50, nM (SEM, n), 37° C.): 0.0121 nM; EC50 (hGCGR; hGCGR EC50, nM (SEM, n), 0.1% bovine casein (no human serum albumin), geometric mean): > 9950 nM; EC50 (hGCGR; hGCGR EC50, nM (SEM, n), 0.1% bovine casein and 1.0% human serum albumin, geometric mean (SEM, n)): > 9950 nM
2 | CC[C@H](C)[C@H](NC(=O)[C@H](CC(C)C)NC(=O)[C@](C)(Cc1ccc(O)cc1)NC(=O)[C@H](CCCCNC(=O)COCCOCCNC(=O)COCCOCCNC(=O)[C@H]1CC[C@H](CNC(=O)CC[C@H](NC(=O)CCCCCCCCCCCCC(=O)O)C(=O)O)CC1)NC(=O)[C@@H](NC(=O)[C@H](Cc1ccccc1)NC(=O)[C@H](CCCN)NC(=O)C(C)(C)NC(=O)[C@H](CCC(N)=O)NC(=O)[C@H](C)NC(=O)[C@H](CCC(N)=O)NC(=O)[C@H](CCCN)NC(=O)[C@H](CC(=O)O)NC(=O)[C@H](CC(C)C)NC(=O)[C@](C)(CC(C)C)NC(=O)[C@@H](NC(=O)C(C)(C)NC(=O)[C@H](Cc1ccncc1)NC(=O)[C@H](CC(=O)O)NC(=O)[C@H](CO)NC(=O)[C@@H](NC(=O)[C@](C)(Cc1ccccc1F)NC(=O)[C@@H](NC(=O)CNC(=O)[C@H](CCC(=O)O)NC(=O)C(C)(C)NC(=O)[C@@H](N)Cc1ccc(O)cc1)[C@@H](C)O)[C@@H](C)O)[C@@H](C)CC)[C@@H](C)CC)C(=O)N[C@@H](CCCCNC(=O)COCCOCCNC(=O)COCCOCCNC(=O)[C@H]1CC[C@H](CNC(=O)CC[C@H](NC(=O)CCCCCCCCCCCCC(=O)O)C(=O)O)CC1)C(=O)NCC(=O)NCC(=O)N1CCC[C@H]1C(=O)N[C@@H](CO)C(=O)N[C@@H](CO)C(=O)NCC(=O)N[C@@H](C)C(=O)N1CCC[C@H]1C(=O)N1CCC[C@H]1C(=O)N1CCC[C@H]1C(=O)N[C@@H](CO)C(N)=O [Example 470] | 112% | 0.127 nM | 93.9% | 0.0103 nM | > 9950 nM | > 9950 nM |  | Emax (hGLP-1R; HEK293, cAMP, 37° C., 0.1% bovine casein and 1.0% human serum albumin, read-out: hGLP-1R Emax, % ± SEM): 113%
3 | CC[C@H](C)[C@H](NC(=O)[C@H](CCCN)NC(=O)[C@H](CC(=O)O)NC(=O)[C@H](CC(C)C)NC(=O)[C@](C)(CC(C)C)NC(=O)[C@@H](NC(=O)C(C)(C)NC(=O)[C@H](Cc1ccc(O)cc1)NC(=O)[C@H](CC(=O)O)NC(=O)[C@H](CO)NC(=O)[C@@H](NC(=O)[C@](C)(Cc1ccccc1F)NC(=O)[C@@H](NC(=O)CNC(=O)[C@H](CCC(=O)O)NC(=O)C(C)(C)NC(=O)[C@@H](N)Cc1ccc(O)cc1)[C@@H](C)O)[C@@H](C)O)[C@@H](C)CC)C(=O)N[C@@H](C)C(=O)N[C@@H](CCC(N)=O)C(=O)NC(C)(C)C(=O)N[C@@H](CCCN)C(=O)N[C@@H](Cc1ccccc1)C(=O)N[C@H](C(=O)N[C@@H](CCCCNC(=O)COCCOCCNC(=O)COCCOCCNC(=O)COCCOCCNC(=O)CC[C@H](NC(=O)CCCCCCCCCCCCC(=O)O)C(=O)O)C(=O)N[C@@](C)(Cc1ccc(O)cc1)C(=O)N[C@@H](CC(C)C)C(=O)N[C@H](C(=O)N[C@@H](CCCCNC(=O)COCCOCCNC(=O)COCCOCCNC(=O)COCCOCCNC(=O)CC[C@H](NC(=O)CCCCCCCCCCCCC(=O)O)C(=O)O)C(=O)NCC(=O)NCC(=O)N1CCC[C@H]1C(=O)N[C@@H](CO)C(=O)N[C@@H](CO)C(=O)NCC(=O)N[C@@H](C)C(=O)N1CCC[C@H]1C(=O)N1CCC[C@H]1C(=O)N1CCC[C@H]1C(=O)N[C@@H](CO)C(N)=O)[C@@H](C)CC)[C@@H](C)CC [Example 478] | 109% | 0.322 nM | 84% | 0.0139 nM | > 9950 nM | > 9950 nM | 6.16 nM | Emax (hGIPR; HEK293, cAMP, 37° C., 0.1% bovine casein, arithmetic mean, read-out: hGIPR Emax, % ± SEM): 93.9%
4 | CC[C@H](C)[C@H](NC(=O)[C@H](CC(C)C)NC(=O)[C@](C)(Cc1ccc(O)cc1)NC(=O)[C@H](CCCCNC(=O)COCCOCCNC(=O)COCCOCCNC(=O)CC[C@H](NC(=O)CC[C@H](NC(=O)CCCCCCCCCCCCC(=O)O)C(=O)O)C(=O)O)NC(=O)[C@@H](NC(=O)[C@H](Cc1ccccc1)NC(=O)[C@H](CCCN)NC(=O)C(C)(C)NC(=O)[C@H](CCC(N)=O)NC(=O)[C@H](C)NC(=O)[C@H](CCC(N)=O)NC(=O)[C@H](CCCN)NC(=O)[C@H](CC(=O)O)NC(=O)[C@H](CC(C)C)NC(=O)[C@](C)(CC(C)C)NC(=O)[C@@H](NC(=O)C(C)(C)NC(=O)[C@H](Cc1ccc(O)cc1)NC(=O)[C@H](CC(=O)O)NC(=O)[C@H](CO)NC(=O)[C@@H](NC(=O)[C@](C)(Cc1ccccc1F)NC(=O)[C@@H](NC(=O)CNC(=O)[C@H](CCC(=O)O)NC(=O)C(C)(C)NC(=O)[C@@H](N)Cc1ccc(O)cc1)[C@@H](C)O)[C@@H](C)O)[C@@H](C)CC)[C@@H](C)CC)C(=O)N[C@@H](CCCCNC(=O)COCCOCCNC(=O)COCCOCCNC(=O)CC[C@H](NC(=O)CC[C@H](NC(=O)CCCCCCCCCCCCC(=O)O)C(=O)O)C(=O)O)C(=O)NCC(=O)NCC(=O)N1CCC[C@H]1C(=O)N[C@@H](CO)C(=O)N[C@@H](CO)C(=O)NCC(=O)N[C@@H](C)C(=O)N1CCC[C@H]1C(=O)N1CCC[C@H]1C(=O)N1CCC[C@H]1C(=O)N[C@@H](CO)C(N)=O [Example 480] | 120% | 0.124 nM |  | 0.00955 nM | > 9950 nM | > 9950 nM | 2.65 nM | 
5 | hGIP(1-42)NH2 (from UniProt P09681 52-93) (ligand) |  |  |  |  |  |  |  | Emax, cAMP [1]: 100%; cAMP EC50 (1.0% HSA) [1]: 0.597 nM; cAMP Emax (1.0% HSA) [1]: 98%
